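1) Cells in 96-well plates. 2) Compound, 48 h, 5 concentrations. 3) Linear interpolation between surrounding doses. 4) Unreached endpoint = highest concentration. At the GI50, growth is halved.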 The source made the active and inactive calls. Cut-off read from the data, not from the text of the source: active = GI50 up to about 1.1 µM and inactive = higher.
Tests used:
Experiment in all cases: inhibition of tumour cell growth, NCI panel, 48 h
[1] = tested on: U-251
[2] = tested on: HOP-18
[3] = tested on: OVCAR-8
[4] = tested on: KM-20L2
[5] = tested on: LOX IMVI
[6] = tested on: NCI-H460
[7] = tested on: DLD-1
[8] = tested on: HCT-116
[9] = tested on: SF-295
[10] = tested on: SF-539
[11] = tested on: DMS-114
[12] = tested on: SNB-78
[13] = tested on: UO-31
[14] = tested on: EKVX
[15] = tested on: DMS-273
[16] = tested on: HCC 2998
[17] = tested on: CCRF-CEM
[18] = tested on: HL-60
[19] = tested on: SW-620
[20] = tested on: CAKI-1
[21] = tested on: LXFL 529
[22] = tested on: SN12C
[23] = tested on: SK-MEL-28
[24] = tested on: UACC-257
[25] = tested on: KM12
[26] = tested on: SK-MEL-5
[27] = tested on: IGROV-1
[28] = tested on: OVCAR-4
[29] = tested on: RXF 631
[30] = tested on: NCI-H522
[31] = tested on: COLO 205
[32] = tested on: OVCAR-5
[33] = tested on: M14
[34] = tested on: MOLT-4
[35] = tested on: UACC-62
[36] = tested on: SF-268
[37] = tested on: TK-10
[38] = tested on: 786-0
[39] = tested on: SK-OV-3
[40] = tested on: ACHN
[41] = tested on: SK-MEL-2
[42] = tested on: RPMI-8226
[43] = tested on: M19-MEL
[44] = tested on: Malme-3M
[45] = tested on: A549
[46] = tested on: SNB-75
[47] = tested on: HOP-92
[48] = tested on: XF498
[49] = tested on: OVCAR-3
[50] = tested on: HCT-15
[51] = tested on: RXF 393
[52] = tested on: K562
[53] = tested on: HOP-62
[54] = tested on: SNB-19
[55] = tested on: A498
[56] = tested on: NCI-H23

Measured: GI50

CCc1cccc(C)c1NC(=O)NS(=O)(=O)c1ccc(C)cc1
inactive: [1] > 100 µM | [2] > 100 µM | [3] > 100 µM | [4] > 100 µM | [5] > 100 µM | [6] > 100 µM | [7] > 100 µM | [8] > 100 µM | [9] > 100 µM | [10] > 100 µM | [11] > 100 µM | [12] > 100 µM | [13] > 100 µM | [14] > 100 µM | [15] > 100 µM | [16] > 100 µM | [17] > 100 µM | [18] > 100 µM | [19] > 100 µM | [20] > 100 µM | [21] > 100 µM | [22] > 100 µM | [23] > 100 µM | [24] > 100 µM | [25] > 100 µM | [26] > 100 µM | [27] > 100 µM | [28] > 100 µM | [29] > 100 µM | [30] > 100 µM | [31] > 100 µM | [32] > 100 µM | [33] > 100 µM | [34] > 100 µM | [35] > 100 µM | [36] > 100 µM | [37] > 100 µM | [38] > 100 µM | [39] > 100 µM | [40] > 100 µM | [41] > 100 µM | [42] > 100 µM | [43] > 100 µM | [44] > 100 µM | [45] > 100 µM | [46] 35.2 µM | [47] > 100 µM | [48] > 100 µM | [49] > 100 µM | [51] > 100 µM | [52] > 100 µM | [53] > 100 µM | [54] > 100 µM | [55] > 100 µM | [56] > 100 µM
> 100 µM: [50]

Source: ChEMBL document CHEMBL1201862, “PubChem BioAssay data set” (2004)
